Laboratory results reported in article PMC9005681, “Use of AD Informer Set compounds to explore validity of novel targets in Alzheimer's disease pathology” (Alzheimer's & Dementia : Translational Research & Clinical …, 2022).
Values joined by “and” are separate entries in the source; they are usually repeats but may differ in a detail not shown here. Identical values can stand only once.

Assays:
Assay in all cases: PDSP GPCR panel primary binding assays at 10 μM
[1] = target: T1, cloned human or rodent CNS receptors, channels, and transporters (PDSP panel) (Homo sapiens, UniProt P08173); details: M4, primary assay
T1 construct: expressed in transfected cells
T1 sequence (P08173 1-479): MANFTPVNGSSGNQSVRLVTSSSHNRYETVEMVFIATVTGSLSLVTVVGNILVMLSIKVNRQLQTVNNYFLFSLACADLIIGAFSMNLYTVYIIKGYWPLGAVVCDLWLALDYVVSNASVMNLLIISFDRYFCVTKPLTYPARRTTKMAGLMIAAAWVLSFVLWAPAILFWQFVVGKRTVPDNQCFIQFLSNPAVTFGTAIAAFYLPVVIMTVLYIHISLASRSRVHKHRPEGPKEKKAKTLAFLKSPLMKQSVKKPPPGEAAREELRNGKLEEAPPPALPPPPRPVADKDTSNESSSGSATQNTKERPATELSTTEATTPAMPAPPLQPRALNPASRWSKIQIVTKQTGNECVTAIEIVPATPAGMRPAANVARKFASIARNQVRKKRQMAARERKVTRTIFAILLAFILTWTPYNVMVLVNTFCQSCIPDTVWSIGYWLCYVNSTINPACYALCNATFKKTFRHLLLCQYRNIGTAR
How it was run: (§1)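 PDSP panel of 46–47 cloned human or rodent CNS receptors, channels and transporters; radioligand displacement by compound at 10 μM, in quadruplicate. Where average displacement exceeded 50%, secondary binding followed as 11-point dose-response in triplicate (none for H3, PBR or GABAA).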

[2] = target: T2, cloned human or rodent CNS receptors, channels, and transporters (PDSP panel) (Homo sapiens, UniProt P11229); details: M1, primary assay
T2 construct: expressed in transfected cells
T2 sequence (P11229 1-460): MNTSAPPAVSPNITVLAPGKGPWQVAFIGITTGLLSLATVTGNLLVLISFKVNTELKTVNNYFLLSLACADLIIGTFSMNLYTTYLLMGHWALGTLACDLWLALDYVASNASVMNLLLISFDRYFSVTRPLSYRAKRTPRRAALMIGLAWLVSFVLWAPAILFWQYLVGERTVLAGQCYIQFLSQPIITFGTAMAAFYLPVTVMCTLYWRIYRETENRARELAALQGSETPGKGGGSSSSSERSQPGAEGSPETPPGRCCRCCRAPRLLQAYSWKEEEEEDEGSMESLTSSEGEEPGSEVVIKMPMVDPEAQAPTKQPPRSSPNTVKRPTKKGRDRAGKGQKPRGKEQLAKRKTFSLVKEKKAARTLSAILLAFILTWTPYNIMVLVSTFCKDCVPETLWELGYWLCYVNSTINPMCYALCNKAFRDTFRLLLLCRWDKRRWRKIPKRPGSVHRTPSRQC
How it was run: as §1

[3] = target: T3, cloned human or rodent CNS receptors, channels, and transporters (PDSP panel) (Homo sapiens, UniProt P20309); details: M3, primary assay
T3 construct: expressed in transfected cells
T3 sequence (P20309 whole entry): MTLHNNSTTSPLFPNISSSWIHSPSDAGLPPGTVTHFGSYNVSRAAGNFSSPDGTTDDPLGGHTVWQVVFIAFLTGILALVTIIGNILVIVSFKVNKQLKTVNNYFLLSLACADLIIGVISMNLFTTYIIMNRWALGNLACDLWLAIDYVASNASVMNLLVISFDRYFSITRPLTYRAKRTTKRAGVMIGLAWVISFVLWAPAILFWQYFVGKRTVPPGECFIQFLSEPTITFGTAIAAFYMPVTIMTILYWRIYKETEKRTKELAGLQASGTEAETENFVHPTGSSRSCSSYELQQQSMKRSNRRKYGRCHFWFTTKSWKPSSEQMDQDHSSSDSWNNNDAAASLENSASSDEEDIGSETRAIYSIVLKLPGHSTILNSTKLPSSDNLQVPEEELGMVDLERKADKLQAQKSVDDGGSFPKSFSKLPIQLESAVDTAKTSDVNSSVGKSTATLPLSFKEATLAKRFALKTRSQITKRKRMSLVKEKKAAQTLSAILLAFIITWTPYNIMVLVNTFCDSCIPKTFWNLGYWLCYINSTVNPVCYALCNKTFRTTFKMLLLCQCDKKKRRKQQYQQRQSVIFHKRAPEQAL
How it was run: as §1

[4] = target: T4, cloned human or rodent CNS receptors, channels, and transporters (PDSP panel) (Homo sapiens, UniProt P28566); details: 5-HT1E, primary assay
T4 construct: expressed in transfected cells
T4 sequence (P28566 whole entry): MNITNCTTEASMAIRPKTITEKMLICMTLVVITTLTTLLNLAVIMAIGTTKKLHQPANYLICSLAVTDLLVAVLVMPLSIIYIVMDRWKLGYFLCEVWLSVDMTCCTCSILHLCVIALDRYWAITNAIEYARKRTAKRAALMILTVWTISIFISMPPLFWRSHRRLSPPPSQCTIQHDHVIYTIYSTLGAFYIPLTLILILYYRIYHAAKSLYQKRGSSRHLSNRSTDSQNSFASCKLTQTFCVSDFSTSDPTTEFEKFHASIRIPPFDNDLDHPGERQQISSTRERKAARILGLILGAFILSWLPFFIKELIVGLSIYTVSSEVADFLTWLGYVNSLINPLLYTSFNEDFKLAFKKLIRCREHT
How it was run: as §1

[5] = target: T5, cloned human or rodent CNS receptors, channels, and transporters (PDSP panel) (Homo sapiens, UniProt P35372); details: MOR, primary assay
T5 construct: expressed in transfected cells
T5 sequence (P35372 whole entry): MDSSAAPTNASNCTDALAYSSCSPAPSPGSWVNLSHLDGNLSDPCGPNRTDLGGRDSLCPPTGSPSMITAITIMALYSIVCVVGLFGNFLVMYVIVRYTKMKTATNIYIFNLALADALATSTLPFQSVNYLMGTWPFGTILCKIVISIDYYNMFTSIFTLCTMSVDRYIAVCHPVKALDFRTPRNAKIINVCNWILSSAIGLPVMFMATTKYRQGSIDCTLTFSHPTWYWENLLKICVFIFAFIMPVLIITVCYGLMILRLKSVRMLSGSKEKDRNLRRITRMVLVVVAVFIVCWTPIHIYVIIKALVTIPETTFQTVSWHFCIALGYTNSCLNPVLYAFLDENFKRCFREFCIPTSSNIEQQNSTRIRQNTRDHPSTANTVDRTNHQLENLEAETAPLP
How it was run: as §1

[6] = target: T6, cloned human or rodent CNS receptors, channels, and transporters (PDSP panel) (Homo sapiens, UniProt P35462); details: D3, primary assay
T6 construct: expressed in transfected cells
T6 sequence (P35462 whole entry): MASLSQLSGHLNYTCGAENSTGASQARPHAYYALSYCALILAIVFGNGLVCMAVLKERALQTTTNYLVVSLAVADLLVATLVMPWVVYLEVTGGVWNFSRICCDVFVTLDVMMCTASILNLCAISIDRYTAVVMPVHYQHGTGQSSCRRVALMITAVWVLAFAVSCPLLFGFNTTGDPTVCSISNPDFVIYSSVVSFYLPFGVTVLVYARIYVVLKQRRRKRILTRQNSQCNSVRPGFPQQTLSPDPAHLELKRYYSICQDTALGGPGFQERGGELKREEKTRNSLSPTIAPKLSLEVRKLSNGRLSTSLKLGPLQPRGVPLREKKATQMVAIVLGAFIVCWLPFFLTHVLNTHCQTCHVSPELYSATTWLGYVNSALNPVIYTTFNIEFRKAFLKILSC
How it was run: as §1

[7] = target: T7, cloned human or rodent CNS receptors, channels, and transporters (PDSP panel) (Homo sapiens, UniProt P50406); details: 5-HT6, primary assay
T7 construct: expressed in transfected cells
T7 sequence (P50406 whole entry): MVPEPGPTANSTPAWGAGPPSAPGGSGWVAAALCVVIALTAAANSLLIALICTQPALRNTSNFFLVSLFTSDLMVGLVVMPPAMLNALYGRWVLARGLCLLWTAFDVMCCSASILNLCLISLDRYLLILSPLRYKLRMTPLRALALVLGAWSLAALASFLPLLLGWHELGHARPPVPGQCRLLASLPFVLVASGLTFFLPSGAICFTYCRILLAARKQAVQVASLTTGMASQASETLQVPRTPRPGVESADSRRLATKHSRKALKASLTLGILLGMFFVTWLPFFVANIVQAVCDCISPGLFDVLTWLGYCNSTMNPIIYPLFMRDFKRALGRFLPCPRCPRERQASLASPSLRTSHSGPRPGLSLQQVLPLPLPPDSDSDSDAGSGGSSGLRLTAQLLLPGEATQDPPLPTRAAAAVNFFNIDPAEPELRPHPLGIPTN
How it was run: as §1

[8] = target: T8, cloned human or rodent CNS receptors, channels, and transporters (PDSP panel) (Rattus norvegicus, UniProt P16257); details: PBR, primary assay
T8 construct: expressed in transfected cells
How it was run: as §1

In the case of `O=C(NC1CC1)C(=O)C(Cc1ccccc1)NC(=O)[C@H]1CCC(=O)N1Cc1ccccc1` (stereo partly drawn) [UNC10302676A, ABT-957 (Alicapistat)], the Mean % ([1]; mean inhibition) is reported as -0.92%, the “Inhibition 1” value ([1]; replicate 1) is reported as -9.99% and the “Inhibition 2” value ([1]; replicate 2) is reported as -2.41%. For the same compound, the “Inhibition 3” value ([1]; replicate 3) was -11.37%, the “Inhibition 4” value ([1]; replicate 4) was 20.1% and the Mean % ([2]; mean inhibition) was -5.83%. For the same compound, the “Inhibition 1” value ([2]; replicate 1) was 12.89%, the “Inhibition 2” value ([2]; replicate 2) was -15.33% and the “Inhibition 3” value ([2]; replicate 3) was -17.78%. For the same compound, the “Inhibition 4” value ([2]; replicate 4) was -3.1%, the Mean % ([3]; mean inhibition) was -7.1% and the “Inhibition 1” value ([3]; replicate 1) was 3.98%. The “Inhibition 2” value ([3]; replicate 2) was -16.69%, the “Inhibition 3” value ([3]; replicate 3) was -10.47% and the “Inhibition 4” value ([3]; replicate 4) was -5.21%. For the same compound, the Mean % ([4]; mean inhibition) was -4.73%, the “Inhibition 1” value ([4]; replicate 1) was 3.28% and the “Inhibition 2” value ([4]; replicate 2) was -0.45%. The “Inhibition 3” value ([4]; replicate 3) was -9.69%, the “Inhibition 4” value ([4]; replicate 4) was -12.07% and the Mean % ([5]; mean inhibition) was 7.04%. For the same compound, the “Inhibition 1” value ([5]; replicate 1) was 10.32%, the “Inhibition 2” value ([5]; replicate 2) was 13.58% and the “Inhibition 3” value ([5]; replicate 3) was -4.06%. The “Inhibition 4” value ([5]; replicate 4) was 8.3%, the Mean % ([6]; mean inhibition) was 10.85% and the “Inhibition 1” value ([6]; replicate 1) was 10.26%. For the same compound, the “Inhibition 2” value ([6]; replicate 2) was -6.41%, the “Inhibition 3” value ([6]; replicate 3) was 23.48% and the “Inhibition 4” value ([6]; replicate 4) was 16.06%. The Mean % ([7]; mean inhibition) was -7.55%, the “Inhibition 1” value ([7]; replicate 1) was 7.34% and the “Inhibition 2” value ([7]; replicate 2) was -8.22%. For the same compound, the “Inhibition 3” value ([7]; replicate 3) was -20.76%, the “Inhibition 4” value ([7]; replicate 4) was -8.54% and the “Inhibition 1” value ([8]; replicate 1) was 2.97% and 17.9%. The “Inhibition 2” value ([8]; replicate 2) was -4.68% and 2.11%, the “Inhibition 3” value ([8]; replicate 3) was 1.91% and 4.11% and the “Inhibition 4” value ([8]; replicate 4) was -8.81% and 7.78%.
